Experimental findings from US7666867B2, “Heteroindanes: a new class of potent cannabimimetic ligands” (University of Connecticut, priority 2001, dated 2010) are described below.

In assay [1] the test system is rats. Nature of the assay: Locomotor activity, rate of beam crossings in photocell apparatus. The format is in vivo, rat. The settings on record: intravenous; for effect on locomotor activity: early after administration, FIG. 3 and 4. The procedure: Rats were injected with varied doses of either some of the inventive compounds or with WIN 55212-2, a known CB1/CB2 receptor agonist. The injected compounds were solubilized in DMSO:40% cyclodextrin (1:10) and intravenously administered.
Locomotor activity was assessed by measuring the rate of beam crossings by rats in a photocell apparatus according to the procedure of M. Cosenza et al, Locomotor Activity and Occupancy of Brain Cannabinoid CB1 Receptors by the Antagonist/Inverse Agonist AM281, Synapse, 38, 477-482 (2000).

For a further assay, the target named is T1, CB2 receptor (Mus musculus, UniProt P47936).
T1 construct: membranes were prepared from frozen mouse spleen; from tissue; host or cells: frozen mouse spleen membranes
Nature of the assay: CB2 receptor binding assay, [3H]CP-55,940 displacement, mouse spleen membranes. The procedure: (§1) The treated membranes were subsequently used in the binding assay described below. Approximately 30 μg of membranes were incubated in silanized 96-well microtiter plate with TME containing 0.1% essentially fatty acid-free bovine serum albumin (BSA), 0.8 nM [^3H] CP-55,940, and various concentrations of test materials in a final volume of […]. The assays were incubated for 1 hour at 30° C. and then immediately filtered using Packard Filtermate 196 harvester and Whatman GF/C filterplates and washed with wash buffer (TME) containing 0.5% BSA. Radioactivity was detected using MicroScint 20 scintillation cocktail added directly to the dried filterplates, and the filterplates were counted using a Packard Instruments Top-Count. Nonspecific binding was assessed using 100 nM CP-55,940. Data collected from three independent experiments performed with duplicate determinations was normalized between 100% and 0% specific binding for [^3H] CP-55,940, determined using buffer and 100 nM CP-55,940. The normalized data was analyzed using a 4-parameter nonlinear logistic equation to yield IC50 values. Data from at least two indeperident experiments performed in duplicate was used to calculate IC50 values which were converted to Ki values using the assumptions of Cheng et al, Relationship Between the Inhibition Constant (Ki) and the concentratiori of Inhibitor which causes 50% Inhibition (IC50) of an Enzymatic Reaction, Biochem. Pharmacol., 22, 3099-3102, (1973), which is incorporated by reference herein.
For the CB2 receptor binding studies, membranes were prepared from frozen mouse spleen essentially according to the procedure of P. R. Dodd et al, A Rapid Method for Preparing Synaptosomes: Comparison with Alternative Procedures, Brain Res., 226, 107-118 (1981) which is incorporated by reference herein. Silanized centrifuge tubes were used throughout to minimize receptor loss due to adsorption. The CB2 binding assay was conducted in the same manner as for the CB1 binding assay. The binding affinities (Ki) were also expressed in nanomoles (nM).

The target in another assay is T2, CB1 receptor (Rattus norvegicus, UniProt P20272).
T2 construct: membranes were prepared from rat forebrain membranes; from tissue; host or cells: rat forebrain membranes
Nature of the assay: CB1 receptor binding assay, [3H]CP-55,940 displacement, rat forebrain membranes. How it is done:
The inventive analogs were tested for CB2 receptor binding affinity and for CB1 receptor affinity (to determine selectivity for the CB2 receptor). As used herein, “binding affinity” is represented by the IC50 value which is the concentration of an analog required to occupy the 50% of the total number (Bmax) of the receptors. The lower the IC50 value the higher the binding affinity. […] For the CB1 receptor binding studies, membranes were prepared from rat forebrain membranes according to the procedure of P. R. Dodd et al, A Rapid Method for Preparing Synaptosomes: Comparison with Alternative Procedures, Brain Res., 107-118 (1981). The binding of the novel analogues to the CB1 cannabinold receptor was assessed as described in W. A. Devane et al, Determination and Characterization of a Cannabinoid Receptor in a Rat Brain, Mol. Pharmacol., 34, 605-613 (1988) and A. Charalambous et al, 5′-azido Δ^8− THC: A Novel Photoaffinity Label for the Cannabinoid Receptor, J. Med. Chem., 35, 3076-3079 (1992) with the following changes. The above articles are incorporated by reference herein.
Membranes, previously frozen at −80° C., were thawed on ice. To the stirred suspension was added three volumes of TME (25 mM Tris-HCl buffer, 5 mM MgCl2 and 1 mM EDTA) at a pH 7.4. The suspension was incubated at 4° C. for 30 min. At the end of the incubation, the membranes were pelleted and washed three times with TME.
as §1

For assay [2], the system named is rats. Nature of the assay: Peripheral antinociception, paw withdrawal latency to thermal stimulus. In kind it is in vivo, rat. Conditions: ipsilateral i.paw injection, measured 25 min after injection, FIG. 1 and 2. How it is done: Using rats as test subjects, varied doses of some of the inventive compounds were injected subcutaneously in the dorsal surface of the paw (i.paw, 50 μl). Measurements were taken 25 min after i.paw injection. Assessment of antinociceptive action was made by evaluating the response latency to removal of the paw from a focused source of thermal stimulation, as described by T. P. Malan Jr., CB2 Cannabinoid Receptor-mediated Peridpheral Antinociception, Pain, 93, 239-245 (2001), the content of which is incorporated by reference herein. Rats were allowed to acclimate within Plexiglas enclosures on a clear glass plate maintained at 30° C. A radiant heat source (a high-intensity projector lamp) was focused onto the plantar surface of the hindpaw. Activation of the heat source activated a timer, which stopped when withdrawal of the paw was detected with a photodetector. A maximal cut-off of 40 seconds (s) was utilized to prevent tissue damage.
Antinociception is expressed as the percent of the maximum possible effect (% MPE), using the formula: % MPE=(WL-CL)/(CO-CL), where WL is the withdrawal latency obtained experimentally, CL is the control (baseline) value before drug administration, and CO is the cut-off value (40 s). Dose-response curves were generated. Significance was defined as P<0.05.

Where [3] appears, read: rat forebrain membranes, 0.8 nM [3H]CP-55,940, read-out: Ki (nM) CB1.

Where two headings read alike, the source gives them in different places.

T1 sequence (P47936 whole entry): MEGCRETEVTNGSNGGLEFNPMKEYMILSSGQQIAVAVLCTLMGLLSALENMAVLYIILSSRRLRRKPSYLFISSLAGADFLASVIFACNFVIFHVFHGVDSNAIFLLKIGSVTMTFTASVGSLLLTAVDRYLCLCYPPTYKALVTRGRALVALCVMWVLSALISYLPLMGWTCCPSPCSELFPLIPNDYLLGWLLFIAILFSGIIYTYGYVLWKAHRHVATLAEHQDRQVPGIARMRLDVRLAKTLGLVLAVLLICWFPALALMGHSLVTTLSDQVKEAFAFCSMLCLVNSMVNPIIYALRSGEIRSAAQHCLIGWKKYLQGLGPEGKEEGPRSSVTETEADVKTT
T2 sequence (P20272 whole entry): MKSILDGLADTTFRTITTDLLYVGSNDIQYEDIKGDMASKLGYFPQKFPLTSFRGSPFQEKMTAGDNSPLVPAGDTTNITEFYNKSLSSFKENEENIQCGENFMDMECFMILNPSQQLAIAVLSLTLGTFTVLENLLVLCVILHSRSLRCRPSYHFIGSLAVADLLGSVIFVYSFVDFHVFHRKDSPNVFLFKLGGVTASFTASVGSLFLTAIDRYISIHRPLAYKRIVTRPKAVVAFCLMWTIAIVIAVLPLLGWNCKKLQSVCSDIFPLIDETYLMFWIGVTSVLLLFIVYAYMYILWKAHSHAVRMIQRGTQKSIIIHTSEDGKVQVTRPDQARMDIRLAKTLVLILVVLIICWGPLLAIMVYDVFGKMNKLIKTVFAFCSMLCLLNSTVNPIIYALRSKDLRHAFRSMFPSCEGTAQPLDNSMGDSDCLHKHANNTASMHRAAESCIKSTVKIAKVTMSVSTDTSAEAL

`Cc1c(C(=O)c2cccc3ccccc23)c2cccc3c2n1[C@H](CN1CCOCC1)CO3` [WIN 55212-2, reference compound]: in the assay on rats [1], the “cannabinoid-like behaviour in the locomotor assay” value was “produced the typical cannabinoid-like catalepsy and inhibition of locomotion”; the “effect on locomotor activity” value is listed as “significantly reduced locomotor activity”.

On to `O=C(NC12CC3CC(CC(C3)C1)C2)c1nn(CCN2CCOCC2)c2ccccc12` [compound 1], for which the Ki at CB2 receptor was 0.147 nM; at CB1 receptor, 6.84 nM.

Consider `O=C(Nc1cccc2ccccc12)c1nn(CCCCI)c2ccccc12` [compound 8], for which the inhibitory constant (Ki) on CB2 receptor turned out to be 27 nM; on CB1 receptor it was 13.7 nM.

As for `CN1CCCCC1Cn1nc(C(=O)Nc2cccc3ccccc23)c2ccccc21` (stereo not drawn) [compound 10], the values for the Ki on CB2 receptor and at CB1 receptor were 8.04 nM and 15 nM, respectively.

Consider `CN(C)CCCn1nc(C(=O)Nc2cccc3ccccc23)c2ccccc21` [compound 9], for which the Ki stood at 235 nM on CB2 receptor and 451 nM on CB1 receptor (setting [3]).

Consider `CN1CCCCC1Cn1nc(C(=O)NC23CC4CC(CC(C4)C2)C3)c2ccccc21` (stereo not drawn) [compound 2], for which the Ki at CB2 receptor was 8.74 nM; at CB1 receptor, 47.5 nM.

Consider `CN(C)CCCn1nc(C(=O)NC23CC4CC(CC(C4)C2)C3)c2ccccc21` [compound 6], for which the Ki on CB2 receptor turned out to be 20.9 nM; on CB1 receptor (setting [3]) it was 443 nM.

As for `O=C(NC12CC3CC(CC(C3)C1)C2)c1nn(CCCCCl)c2ccccc12` [compound 4], the Ki at CB2 receptor came out at 1.34 nM; at CB1 receptor it was 1.65 nM.

`O=C(NN1CCCCC1)c1nn(-c2ccccc2)c2cc(Br)ccc12` [compound 11]: the Ki at CB2 receptor came out at 84.7 nM; on CB1 receptor (setting [3]), 1850 nM.

For `O=C(Nc1cccc2ccccc12)c1nn(CCCCCl)c2ccccc12` [compound 7], the Ki on CB2 receptor was found to be 0.135 nM; on CB1 receptor it was 0.268 nM.

`N#CCCCCn1nc(C(=O)NC23CC4CC(CC(C4)C2)C3)c2ccccc21` [compound 3] displayed a Ki at CB2 receptor of 0.309 nM. The inhibition constant (Ki) on CB1 receptor amounted to 2.28 nM. In the assay on rats [2], the “antinociception to a thermal stimulus applied to the hindpaw” value is listed as “produced dose-dependent antinociception”. Further, in the assay with rats [1], the “cannabinoid-like behaviour in the locomotor assay” value was “produced the typical cannabinoid-like catalepsy and inhibition of locomotion”; the “effect on locomotor activity” value is recorded as “significantly reduced locomotor activity”.

Regarding `O=C(NC12CC3CC(CC(C3)C1)C2)c1nn(CCCCI)c2ccccc12` [compound 5], the Ki on CB2 receptor turned out to be 0.164 nM; at CB1 receptor it was 0.596 nM.
